According to patent US20230174584A1, “Antibiotic Compounds” (priority 2019, published 2023):
In brackets after ≈: the same amount, converted by molar mass.

Experiments:
E. faecium E0341 = assay: MIC assay; type: cell-based, Enterococcus faecium; conditions: E. faecium E0341, VanA
E. faecalis E7604 = assay: microbe, parasite or virus in culture; type: cell-based, Enterococcus faecalis; conditions: E. faecalis E7604 VRE (vanB)
Method: (§1) The antibacterial activity of the compounds was tested against a panel of bacteria, including Gram-positive bacteria (S. aureus ATCC29213, S. aureus USA300, S. aureus LIM-2, NR-45881, S. aureus HIP13419, NR-46413, E. faecium E155, E. faecium E7314, E. faecium E980, E. faecalis E1246, E. faecalis E7406 and S. pneumonia 153). The antibacterial activity of the compounds was further tested against S. aureus NY-155, NR-46236, S. aureus HIP12864, NR-46074, S. aureus 880 (BR-VRSA), NR-49120, E. faecalis E1246, E. faecalis E7604, as well as some Gram-negative bacteria (Escherichia coli and Klebsiella pneumoniae). Minimum inhibitory concentrations (MICs) in μg/mL were performed according to the CLSI guidelines. From glycerol stocks, bacterial strains were cultured on blood agar plates and incubated at 37° C. for 18 h. A single colony was transferred to tryptic soy broth (TSB) with 0.002% polysorbate 80 (p80). For the Enterococcus, VISA and VRSA strains, the cultures were grown at 37° C. until the optical density of the suspension reached a level equivalent to the 0.5 McFarland standard. The bacterial suspensions were diluted in TSB with 0.002% p80 to reach a bacterial cell density of 10^6 CFU/mL. In case of the other (vancomycin-sensitive) S. aureus strains, the direct colony suspension method was used. For these strains, after transfer of the colonies to TSB with 0.002% p80, they were immediately diluted to 10^6 CFU/mL, instead of incubated prior to this dilution. In the case of S. pneumonia, direct colony suspension was used by immediately suspending multiple colonies from fresh blood agar plates in TSB+0.002% p80 to an OD600 of 0.5 and subsequent dilution to 10^6 CFU mL^−1 in TSB+0.002% p80+5% lysed horse blood. Antibiotic dilutions for this strains were also made in TSB+0.002% p80+5% lysed horse blood. Both agar and microplates containing S. pneumonia were incubated at 37° C. with 5% CO2 for 24 h with constant shaking (600 rpm). […] The cultures were grown to exponential phase (OD600=0.5) at 37° C. […] In polypropylene 96-well microtiter plates, test compounds were added in biological triplicates and serial diluted 2-fold by transfer and mixing from one well to the next to achieve a final volume of 50 μL per well. An equal volume of bacterial suspension (10^6 CFU mL^−1) was added to the wells. The plates were sealed with breathable membranes and incubated at 37° C. for 24 h with constant shaking (600 rpm). In polypropylene microtiter plates, 100 μL of the test compounds was added to the first row in biological triplicates, and 50 μL of media was added to the other wells. The compounds were subjected to serial dilution by transfer and mixing of 50 μL from one well to the next. Subsequently, 50 μL of bacterial suspension (10^6 CFU/mL) was added to the wells. The plates were sealed with breathable membranes and incubated at 37° C. for 24 h with constant shaking (600 rpm). Positive growth control consisted of wells with bacterial suspension and without antibiotic. Negative growth control consisted of solely media without bacterial suspension or antibiotic. The MICs were determined from the median of a minimum of triplicates.

E. faecalis E7406 = assay: microbe, parasite or virus in culture; type: cell-based, Enterococcus faecalis; conditions: E. faecalis E7406 VRE (VanB)
Method: as §1

S. aureus USA300 = assay: microbe, parasite or virus in culture; type: cell-based, Staphylococcus aureus
Method: as §1

[1] = test system: S. aureus HIP13419, NR-46413; assay: microbe, parasite or virus in culture; type: cell-based, Staphylococcus aureus; conditions: S. aureus HIP13419, NR-46413 VRSA
Method: as §1

E. faecium E2359 = assay: MIC assay; type: cell-based, Enterococcus faecium; conditions: E. faecium E2359, VanB
[2] = test system: S. aureus 880 (BR-VRSA), NR-49120; assay: MIC assay; type: cell-based, Staphylococcus aureus; conditions: S. aureus 880, NR-49120 VRSA
Method: as §1

[3] = test system: S. aureus NY-155, NR-46236; assay: MIC assay; type: cell-based, Staphylococcus aureus; conditions: S. aureus NY-155, NR-46236 MRSA
Method: as §1

[4] = test system: S. aureus LIM-2, NR-25881; assay: MIC assay; type: cell-based, Staphylococcus aureus; conditions: S. aureus LIM-2, NR-25881 VISA
Method: as §1

[5] = test system: S. aureus HIP12864, NR-46074; assay: MIC assay; type: cell-based, Staphylococcus aureus; conditions: S. aureus HIP12864, NR-46074 VISA
Method: as §1

S. aureus ATCC29213 = assay: MIC assay; type: cell-based, Staphylococcus aureus; conditions: S. aureus ATCC29213 MSSA
Method: as §1

E. faecium E7314 = assay: microbe, parasite or virus in culture; type: cell-based, Enterococcus faecium
Method: as §1

E. faecium E155 = assay: microbe, parasite or virus in culture; type: cell-based, Enterococcus faecium
Method: as §1

E. faecium E980 = assay: MIC assay; type: cell-based, Enterococcus faecium; conditions: E. faecium E980 VSE
Outline: (§2)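 CLSI broth microdilution in TSB + 0.002% polysorbate 80, 10^6 CFU/mL inoculum, 2-fold compound dilutions, 24 h at 37° C with shaking (600 rpm). VISA, VRSA and Enterococcus inocula grown to 0.5 McFarland before dilution; vancomycin-sensitive S. aureus by direct colony suspension. MIC (μg/mL) as median of ≥ triplicates.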

E. faecium E7403 = assay: MIC assay; type: cell-based, Enterococcus faecium; conditions: E. faecium E7403, VanB
Outline: as §2

[6] = E. faecium E7314, VanB (Table 10)
[7] = E. faecium E155, VanA (Table 10)

`CCCCCCCCNC(N)=Nc1ccc(CN[C@@]2(C)C[C@H](O[C@H]3[C@H](Oc4c5cc6cc4Oc4ccc(cc4Cl)[C@@H](O)[C@@H](NC(=O)[C@@H](CC(C)C)NC)C(=O)N[C@@H](CC(N)=O)C(=O)N[C@H]6C(=O)N[C@H]4C(=O)N[C@H](C(=O)N[C@H](C(=O)O)c6cc(O)cc(O)c6-c6cc4ccc6O)[C@H](O)c4ccc(c(Cl)c4)O5)O[C@H](CO)[C@@H](O)[C@@H]3O)O[C@@H](C)[C@H]2O)cc1` [Compound 6] was tested, and the MIC (E. faecium E0341) was 4000 ng/mL (≈ 2340 nM), the MIC (E. faecalis E7604) was ≤8 ng/mL and the MIC (E. faecalis E7406) was ≤7.812 ng/mL. The MIC (S. aureus USA300; MRSA USA300, TSB + 0.002% p80) was ≤8 ng/mL, the MIC (S. aureus USA300; S. aureus USA300 MRSA) was ≤7.812 ng/mL and the MIC [1] was 500 ng/mL (≈ 293 nM). The MIC (E. faecium E2359) was ≤8 ng/mL, the MIC [2] was 2000 ng/mL (≈ 1170 nM) and the MIC [3] was ≤8 ng/mL. The MIC [4] was ≤8 ng/mL, the MIC [5] was ≤8 ng/mL and the MIC (S. aureus ATCC29213) was ≤7.812 ng/mL. For the same compound, the MIC (E. faecium E7314; [6]) was ≤8 ng/mL, the MIC (E. faecium E7314; E. faecium E7314 VRE (VanB)) was ≤7.812 ng/mL and the MIC (E. faecium E155; [7]) was 1000 ng/mL (≈ 585 nM). The MIC (E. faecium E155; E. faecium E155 VRE (VanA)) was 1000 ng/mL (≈ 585 nM), the MIC (E. faecium E980) was 15.62 ng/mL (≈ 9.14 nM) and the MIC (E. faecium E7403) was ≤8 ng/mL.
With `CN[C@H](CC(C)C)C(=O)N[C@H]1C(=O)N[C@@H](CC(N)=O)C(=O)N[C@H]2C(=O)N[C@H]3C(=O)N[C@H](C(=O)N[C@H](C(=O)O)c4cc(O)cc(O)c4-c4cc3ccc4O)[C@H](O)c3ccc(c(Cl)c3)Oc3cc2cc(c3O[C@@H]2O[C@H](CO)[C@@H](O)[C@H](O)[C@H]2O[C@H]2C[C@](C)(NCc3ccc(N=C(N)NC/C=C(\C)CCC=C(C)C)cc3)[C@H](O)[C@H](C)O2)Oc2ccc(cc2Cl)[C@H]1O` [Compound 14] the MIC (E. faecium E0341) was 4000 ng/mL (≈ 2310 nM), the MIC (E. faecalis E7604) was ≤8 ng/mL and the MIC (E. faecalis E7406) was ≤7.812 ng/mL. It also gave an MIC (S. aureus USA300; MRSA USA300, TSB + 0.002% p80) of 31 ng/mL, an MIC (S. aureus USA300; S. aureus USA300 MRSA) of 31.25 ng/mL (≈ 18 nM) and an MIC [1] of 63 ng/mL (≈ 36.4 nM). The MIC (E. faecium E2359) was ≤8 ng/mL, the MIC [2] was 1000 ng/mL (≈ 577 nM) and the MIC [3] was ≤8 ng/mL. For the same compound, the MIC [4] was ≤8 ng/mL, the MIC [5] was 31 ng/mL (≈ 17.9 nM) and the MIC (S. aureus ATCC29213) was ≤7.812 ng/mL. For the same compound, the MIC (E. faecium E7314; [6]) was ≤8 ng/mL, the MIC (E. faecium E7314; E. faecium E7314 VRE (VanB)) was ≤7.812 ng/mL and the MIC (E. faecium E155; [7]) was 1000 ng/mL (≈ 577 nM). The MIC (E. faecium E155; E. faecium E155 VRE (VanA)) was 1000 ng/mL (≈ 577 nM), the MIC (E. faecium E980) was ≤7.812 ng/mL and the MIC (E. faecium E7403) was ≤8 ng/mL.
For `CCCCCCCCCNC(N)=Nc1ccc(CN[C@@]2(C)C[C@H](O[C@H]3[C@H](Oc4c5cc6cc4Oc4ccc(cc4Cl)[C@@H](O)[C@@H](NC(=O)[C@@H](CC(C)C)NC)C(=O)N[C@@H](CC(N)=O)C(=O)N[C@H]6C(=O)N[C@H]4C(=O)N[C@H](C(=O)N[C@H](C(=O)O)c6cc(O)cc(O)c6-c6cc4ccc6O)[C@H](O)c4ccc(c(Cl)c4)O5)O[C@H](CO)[C@@H](O)[C@@H]3O)O[C@@H](C)[C@H]2O)cc1` [Compound 7], the MIC (E. faecium E0341) was 1000 ng/mL (≈ 580 nM), the MIC (E. faecalis E7604) was ≤8 ng/mL and the MIC (E. faecalis E7406) was ≤7.812 ng/mL. The MIC (S. aureus USA300; MRSA USA300, TSB + 0.002% p80) was ≤8 ng/mL, the MIC (S. aureus USA300; S. aureus USA300 MRSA) was ≤7.812 ng/mL and the MIC [1] was 125 ng/mL (≈ 72.6 nM). The MIC (E. faecium E2359) was ≤8 ng/mL, the MIC [2] was 500 ng/mL (≈ 290 nM) and the MIC [3] was ≤8 ng/mL. For the same compound, the MIC [4] was ≤8 ng/mL, the MIC [5] was ≤8 ng/mL and the MIC (S. aureus ATCC29213) was 15.62 ng/mL (≈ 9.07 nM). For the same compound, the MIC (E. faecium E7314; [6]) was ≤8 ng/mL, the MIC (E. faecium E7314; E. faecium E7314 VRE (VanB)) was ≤7.812 ng/mL and the MIC (E. faecium E155; [7]) was 500 ng/mL (≈ 290 nM). For the same compound, the MIC (E. faecium E155; E. faecium E155 VRE (VanA)) was 500 ng/mL (≈ 290 nM), the MIC (E. faecium E980) was 31.25 ng/mL (≈ 18.1 nM) and the MIC (E. faecium E7403) was ≤8 ng/mL.
